Here are results for nine compounds from patent US11179391B2, “Compound with kinase inhibitory activity and preparation method and use thereof” (priority 2017, dated 2021).

Usually IC50 stands for the concentration needed to halve the response being measured. Usually Cmax stands for the highest concentration seen after dosing. Usually Tmax stands for the time at which the peak concentration occurs. By half-life is commonly meant how long it takes for the measured level to halve. Low readings indicate fast loss, high ones slow loss.

Where two headings read alike, the source gives them in different places.

One data set deals with CDK6/cycD3 (Homo sapiens, UniProt Q00534). Put plainly: Determination of CDK activity (Caliper mobility shift, FAM-P8 peptide): CDK6. Format: biochemical. Conditions: CDK6/cycD3; read-out: CDK6 enzymatic inhibitory activity (IC50). Summed up: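 GST-CDK6(1-326)/cycD3 with FAM-P8 peptide and ATP, after 10 min room-temperature enzyme–compound preincubation; reaction at 28 °C, then EDTA stop. Substrate conversion read by Caliper mobility shift; inhibition from no-compound and no-enzyme controls, IC50 fitted over 10-point dilution in DMSO.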
Chain of CDK6/cycD3 (Q00534 whole entry): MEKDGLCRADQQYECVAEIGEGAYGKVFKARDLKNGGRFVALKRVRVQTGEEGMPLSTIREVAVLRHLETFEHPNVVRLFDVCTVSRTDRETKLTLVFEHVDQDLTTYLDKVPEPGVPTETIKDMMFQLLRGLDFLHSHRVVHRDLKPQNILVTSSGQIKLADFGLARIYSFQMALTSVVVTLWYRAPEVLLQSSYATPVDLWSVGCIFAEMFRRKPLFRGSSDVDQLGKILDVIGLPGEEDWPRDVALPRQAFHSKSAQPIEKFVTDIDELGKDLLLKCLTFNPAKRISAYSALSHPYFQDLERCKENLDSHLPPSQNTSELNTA
Chain of CDK6/cycD3 (P30281 whole entry partner): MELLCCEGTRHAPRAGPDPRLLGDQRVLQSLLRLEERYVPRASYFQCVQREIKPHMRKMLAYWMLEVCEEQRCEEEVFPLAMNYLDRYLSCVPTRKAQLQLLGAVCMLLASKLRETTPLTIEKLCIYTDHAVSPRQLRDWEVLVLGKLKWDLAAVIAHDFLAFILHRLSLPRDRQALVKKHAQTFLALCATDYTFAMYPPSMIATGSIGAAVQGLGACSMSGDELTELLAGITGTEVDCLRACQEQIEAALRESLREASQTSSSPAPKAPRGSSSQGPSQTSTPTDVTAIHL

A further data set has as its target CDK4/CycD3 (Homo sapiens, UniProt P11802). Put plainly: Determination of CDK activity (Caliper mobility shift, FAM-P8 peptide): CDK4. Format: biochemical. Particulars: CDK4/CycD3; read-out: CDK4 enzymatic inhibitory activity (IC50). The method, boiled down: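 GST-CDK4(1-303)/GST-CycD3(1-292) was preincubated with compound for 10 min at room temperature, then FAM-P8 peptide and ATP were added; the reaction ran at 28 °C and was stopped with EDTA-containing stop buffer. Peptide conversion was read by Caliper mobility shift. A 10-point dilution series was fitted for IC50.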

Data set [1] in a line: Pharmacokinetic study in rats. Format: in vivo, Sprague-Dawley rats. Particulars: for F / Cmax / Tmax / clearance / half-life / AUC(0-t): male Sprague-Dawley rats; for F: iv 2 mg/kg and oral 5 mg/kg; for Cmax / Tmax / clearance / half-life / AUC(0-t): rat, plasma, study dosed iv 2 mg/kg and oral 5 mg/kg, route of this parameter not given; for AUC(0-t): read-out: AUC0-24 h. The method, then: Healthy adult Sprague-Dawley rats, male, 7-10 weeks old, weighing 240-270 g, provided by Beijing Vital River Laboratory Animal Technology Co., Ltd., with an animal certificate number of 1140070278736.
Test compounds of the invention: example 17, 33, 40, and 57.
Intravenous administration solvent system of compounds: 10% (V/V) NMP and 90% (20% (V/V)) SBE-β-CD in 16.667 mM PBS with a concentration of 1.0 mg/mL.
Oral administration solvent system of compounds: pure water system containing 0.1% hydroxyethyl cellulose and 0.5% Tween-80, with a concentration of 1 mg/mL.
Intravenous administration: 3 male Sprague-Dawley rats of each test compound were injected intravenously after fasting overnight, with a dose of 2 mg/kg, and the dosing volume was 2 mL/kg. […]
Before the administration, and after administration of 0.0833 (iv), 0.25, 0.5, 1, 2, 4, 8, 12, and 24 h, the jugular vein puncture (approximately 0.15 mL per time point) of each animal was performed by collecting blood from polypropylene tubes. All blood samples were transferred to pre-cooled EDTA-K2 test tubes or pre-cooled plastic microcentrifuge tubes containing 3 μL of 0.5 M EDTA-K2 as anticoagulant and placed on wet ice until centrifugation. Each collected blood was centrifuged at 4° C. for 15 minutes, and plasma was collected. All plasma would be stored in a freezer at about −80° C. until LCMS/MS detection.

A further data set deals with CDK7/CyclinH/MAT1 (Homo sapiens, UniProt P50613). Put plainly: Determination of CDK activity (Caliper mobility shift, FAM-P8 peptide): CDK7. It is filed as biochemical. Conditions: CDK7/CyclinH/MAT1; read-out: CDK7 enzymatic inhibitory activity (IC50). The method, boiled down:
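His-CDK7/GST-MAT1/cyclin H preincubated with compound (10-point series) 10 min at room temperature, then reacted with FAM-P8 peptide plus ATP at 28 °C for a set time before stopping. Peptide conversion read by Caliper mobility shift; converted to % inhibition vs controls and IC50 fitted.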

The target in another data set is CDK9/cyclinTl (Homo sapiens, UniProt P50750). Put plainly: Determination of CDK activity (Caliper mobility shift, FAM-P8 peptide): CDK9. Format: biochemical. Particulars: CDK9/cyclinTl.
Chain of CDK9/cyclinTl (P50750 whole entry): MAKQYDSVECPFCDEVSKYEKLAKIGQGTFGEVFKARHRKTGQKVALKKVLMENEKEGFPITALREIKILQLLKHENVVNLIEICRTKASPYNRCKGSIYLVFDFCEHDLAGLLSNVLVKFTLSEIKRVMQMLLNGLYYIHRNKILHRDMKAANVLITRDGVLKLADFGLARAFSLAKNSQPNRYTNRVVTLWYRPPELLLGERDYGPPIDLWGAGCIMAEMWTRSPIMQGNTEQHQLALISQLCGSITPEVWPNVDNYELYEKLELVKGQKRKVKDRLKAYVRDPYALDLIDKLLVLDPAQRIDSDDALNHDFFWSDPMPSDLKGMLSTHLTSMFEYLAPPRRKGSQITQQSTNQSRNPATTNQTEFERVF
Chain of CDK9/cyclinTl (O60563 whole entry partner): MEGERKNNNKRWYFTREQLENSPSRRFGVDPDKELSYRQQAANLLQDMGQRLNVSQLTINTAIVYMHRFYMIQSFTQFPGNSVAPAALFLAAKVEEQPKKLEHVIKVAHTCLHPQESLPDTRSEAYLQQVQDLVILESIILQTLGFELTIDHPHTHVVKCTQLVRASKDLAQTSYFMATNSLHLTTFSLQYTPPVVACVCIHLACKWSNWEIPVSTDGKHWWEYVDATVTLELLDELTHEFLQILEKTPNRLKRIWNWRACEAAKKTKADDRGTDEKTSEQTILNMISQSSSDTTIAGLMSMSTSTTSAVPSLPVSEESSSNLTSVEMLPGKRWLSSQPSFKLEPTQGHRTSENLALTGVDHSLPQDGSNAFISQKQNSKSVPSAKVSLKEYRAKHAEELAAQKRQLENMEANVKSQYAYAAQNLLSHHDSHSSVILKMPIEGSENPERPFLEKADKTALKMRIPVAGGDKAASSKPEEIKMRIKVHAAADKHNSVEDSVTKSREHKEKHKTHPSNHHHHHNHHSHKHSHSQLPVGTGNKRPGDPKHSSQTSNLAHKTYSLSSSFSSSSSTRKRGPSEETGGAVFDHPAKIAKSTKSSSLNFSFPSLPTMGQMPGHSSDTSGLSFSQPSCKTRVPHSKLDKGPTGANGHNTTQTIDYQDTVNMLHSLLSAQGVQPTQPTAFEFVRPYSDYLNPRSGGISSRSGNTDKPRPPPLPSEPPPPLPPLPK
The next data set addresses CDK1/CyclinB (Homo sapiens, UniProt P06493). Put plainly: Determination of CDK activity (Caliper mobility shift, FAM-P8 peptide): CDK1. It is filed as biochemical. Conditions: CDK1/CyclinB; read-out: CDK1 enzymatic inhibitory activity (IC50).
The next data set concerns the target CDK2/CycA2 (Homo sapiens, UniProt P24941). Put plainly: Determination of CDK activity (Caliper mobility shift, FAM-P8 peptide): CDK2. It is filed as biochemical. Particulars: CDK2/CycA2; read-out: CDK2 enzymatic inhibitory activity (IC50).
In data set [2] the test system is Human colorectal cancer Colo-205 cells. Put plainly: Pharmacodynamic study on mouse Colo-205 model (subcutaneous xenograft). It is filed as in vivo, BALB/c nude mice. Particulars: Colo-205 model, mesylate, 50 mg/kg PO × 28 days. An excerpt: BALB/c nude mice, 6-8 weeks old, weighing 12-14 g, female, provided by Shanghai Lab Animal Research Center (Shanghai Xipuer-Beikai) with an animal certificate No: 2008001682093.
The experiment was started after 3-7 days in the experimental environment when the animals arrived. Animals were housed in IVC (independent air supply system) cages (Four animals per cage) in SPF grade experimental animal facilities. Each cage animal information card contained the number of animals in the cage, sex, strain, receiving date, dosing schedule, experiment number, group and start date of the experiment. All cages, bedding, and drinking water were sterilized before use and were updated twice a week.
4.3 Tumor Cell Inoculation Method
Human colorectal cancer Colo-205 cells (ATCC-CCL-222) were cultured in vitro in monolayer under the conditions of RPMI 1640 medium with 10% fetal bovine serum, 100 U/mL penicillin and 100 μg/mL streptomycin, and 37° C. 5% CO2 incubator. The passage was routinely digested with trypsin-EDTA twice a week. When the cell saturation was up to 80%-90% and reached the requirement, the cells were collected, counted and inoculated. 0.2 mL (5×10^6) Colo-205 cells were subcutaneously inoculated on the right back of each mouse, and mice were randomly grouped and dosed when the average tumor volume reached 163 mm^3.
4.14 mL of lactic acid was added to a large beaker containing 800 mL of deionized water, and the pH was adjusted to 4.0 with 5 N NaOH. Then the volume was fixed to 1,000 mL to obtain 50 mmol/L sodium lactate buffer.
The subcutaneous tumor volume of nude mice was measured 2-3 times a week, and the mice were weighed, and the data were recorded.
4.6 Analysis and Evaluation
Experimental evaluation index: the tumor growth inhibition rate TGI (%) or the relative tumor proliferation rate T/C (%) was used for evaluation, wherein T was the experimental group, and C was the vehicle group.

Where [3] appears, read: rat plasma, at the dose of 10 mg/kg.
Setting [4] is: read-out: CDK9 enzymatic inhibitory activity (IC50).

Chain of CDK4/CycD3 (P11802 whole entry): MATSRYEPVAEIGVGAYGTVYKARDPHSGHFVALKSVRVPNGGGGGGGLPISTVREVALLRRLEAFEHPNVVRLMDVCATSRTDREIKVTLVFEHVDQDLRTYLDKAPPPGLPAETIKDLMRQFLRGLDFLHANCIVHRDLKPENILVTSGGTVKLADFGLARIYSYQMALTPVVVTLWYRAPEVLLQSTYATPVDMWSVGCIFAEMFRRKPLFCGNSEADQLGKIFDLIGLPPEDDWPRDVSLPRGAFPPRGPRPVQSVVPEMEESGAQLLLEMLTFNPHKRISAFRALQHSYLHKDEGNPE
Chain of CDK4/CycD3 (P30281 whole entry partner): as the sequence (P30281 whole entry partner) above
Chain of CDK7/CyclinH/MAT1 (P50613 whole entry): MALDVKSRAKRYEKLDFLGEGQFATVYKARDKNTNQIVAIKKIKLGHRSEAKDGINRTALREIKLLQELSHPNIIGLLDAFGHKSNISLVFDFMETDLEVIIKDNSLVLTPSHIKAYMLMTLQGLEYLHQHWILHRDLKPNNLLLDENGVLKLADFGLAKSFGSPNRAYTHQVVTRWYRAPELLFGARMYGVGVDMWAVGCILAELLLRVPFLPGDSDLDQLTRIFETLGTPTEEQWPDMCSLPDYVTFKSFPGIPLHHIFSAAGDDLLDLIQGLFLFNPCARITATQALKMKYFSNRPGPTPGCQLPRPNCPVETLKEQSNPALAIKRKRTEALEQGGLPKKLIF
Chain of CDK7/CyclinH/MAT1 (P51946 whole entry partner): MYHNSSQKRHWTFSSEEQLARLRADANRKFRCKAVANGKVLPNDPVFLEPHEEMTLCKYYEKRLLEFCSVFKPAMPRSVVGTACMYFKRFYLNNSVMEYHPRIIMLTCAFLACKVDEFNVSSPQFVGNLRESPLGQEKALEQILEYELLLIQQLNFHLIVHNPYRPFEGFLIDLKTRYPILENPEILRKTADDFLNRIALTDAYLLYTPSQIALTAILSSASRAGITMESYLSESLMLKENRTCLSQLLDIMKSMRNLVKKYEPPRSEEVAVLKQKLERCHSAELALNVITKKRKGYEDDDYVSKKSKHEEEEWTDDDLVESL
Chain of CDK7/CyclinH/MAT1 (P51948 whole entry partner): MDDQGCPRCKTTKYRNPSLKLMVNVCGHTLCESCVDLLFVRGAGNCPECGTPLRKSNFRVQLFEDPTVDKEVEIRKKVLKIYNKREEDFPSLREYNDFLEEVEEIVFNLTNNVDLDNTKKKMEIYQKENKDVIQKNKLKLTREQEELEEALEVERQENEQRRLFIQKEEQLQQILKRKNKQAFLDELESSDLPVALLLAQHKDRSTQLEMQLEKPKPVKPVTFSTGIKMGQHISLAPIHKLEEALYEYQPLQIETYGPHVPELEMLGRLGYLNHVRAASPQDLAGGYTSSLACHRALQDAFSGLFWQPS
Chain of CDK1/CyclinB (P06493 whole entry): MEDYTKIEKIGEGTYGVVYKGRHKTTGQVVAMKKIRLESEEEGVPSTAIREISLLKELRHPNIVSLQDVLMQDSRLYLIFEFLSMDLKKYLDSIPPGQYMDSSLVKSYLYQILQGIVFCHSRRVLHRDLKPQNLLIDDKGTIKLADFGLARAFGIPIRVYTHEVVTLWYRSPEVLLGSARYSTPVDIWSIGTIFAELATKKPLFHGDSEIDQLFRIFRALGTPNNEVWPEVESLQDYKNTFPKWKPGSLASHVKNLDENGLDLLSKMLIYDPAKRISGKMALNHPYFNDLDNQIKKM
Chain of CDK1/CyclinB (P14635 whole entry partner): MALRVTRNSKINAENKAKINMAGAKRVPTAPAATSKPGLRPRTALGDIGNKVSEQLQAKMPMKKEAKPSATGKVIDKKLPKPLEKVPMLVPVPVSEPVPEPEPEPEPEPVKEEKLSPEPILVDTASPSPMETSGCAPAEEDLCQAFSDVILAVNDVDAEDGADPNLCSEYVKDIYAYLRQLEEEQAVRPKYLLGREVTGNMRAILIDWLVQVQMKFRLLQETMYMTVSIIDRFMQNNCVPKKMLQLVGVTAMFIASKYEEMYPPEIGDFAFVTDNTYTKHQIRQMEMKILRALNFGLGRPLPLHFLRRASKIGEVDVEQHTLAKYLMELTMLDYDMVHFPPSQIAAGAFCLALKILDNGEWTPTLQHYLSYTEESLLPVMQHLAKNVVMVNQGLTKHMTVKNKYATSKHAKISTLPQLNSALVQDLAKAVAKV

`C=C(c1ccc(Nc2ncc(F)c(-c3cc(F)c4nc(C)n(C(C)C)c4c3)n2)nc1)C1CCN(CC)CC1` [Example 33, N-(5-(1-(1-ethylpiperidin-4-yl)vinyl)pyridin-2-yl)-5-fluoro-4-(4-fluoro-1-isopropyl-2-methyl-1H-benzo[d]imidazol-6-yl) pyrimidin-2-amine]: the IC50 on CDK6/cycD3 was less than 100 nM. Further, at CDK4/CycD3, the IC50 was less than 100 nM. Moreover, in data set [1], the F turned out to be 43.7%, the Cmax came to 161 ng/mL, the Tmax is 8 h and the clearance was found to be 12.1 mL/min/kg. Further, in data set [1], the half-life was 8.19 h and the AUC(0-t) was 2570 ng·h/mL. In data set [1] (setting [3]), the “clearance in rat plasma (in words)” value was “lower clearance”, the “half-life in rat plasma (in words)” value is given as “longer half-life” and the “level of exposure at 24 h in rat plasma (in words)” value was “high level of exposure”. In addition, the IC50 on CDK7/CyclinH/MAT1 fell in the range of 1000 to 10000 nM. The IC50 on CDK9/cyclinTl (setting [4]) is less than 100 nM. Also, the IC50 at CDK1/CyclinB is 100 to 500 nM. At CDK2/CycA2, the IC50 is less than 100 nM.

Take `CCN1CCC(C(O)c2ccc(Nc3ncc(F)c(-c4cc(F)c5nc(C)n(C(C)C)c5c4)n3)nc2)CC1` (single isomer, unassigned) [Example 40, (R or S)-(1-ethylpiperidin-4-yl)(6-((5-fluoro-4-(4-fluoro-1-isopropyl-2-methyl-1H-benzo [d]imidazol-6-yl)pyrimidin-2-yl)amino)pyridin-3-yl) methanol]: the IC50 at CDK6/cycD3 was less than 100 nM. At CDK4/CycD3, the IC50 was less than 100 nM. Moreover, in data set [1], the F stood at 13.3%, the Cmax is 12.9 ng/mL, the Tmax came to 4 h and the clearance amounted to 72.8 mL/min/kg. In addition, in data set [1], the half-life was 11.9 h and the AUC(0-t) turned out to be 132 ng·h/mL. In addition, the IC50 on CDK7/CyclinH/MAT1 was in the range of 500 to 1000 nM. Moreover, on CDK9/cyclinTl (setting [4]), the IC50 was less than 100 nM. On CDK1/CyclinB, the IC50 is less than 100 nM. Also, at CDK2/CycA2, the IC50 is less than 100 nM.

As to `CCN1CCC(C(O)c2ccc(Nc3ncc(F)c(-c4cc(F)c5nc(C)n(C(C)C)c5c4)n3)nc2)CC1` (racemic) [Example 39, (1-Ethylpiperidin-4-yl)(6-((5-fluoro-4-(4-fluoro-1-isopropyl-2-methyl-1H-benzo[d]imidazol-6-yl)pyrimidin-2-yl)amino)pyridin-3-yl)methanol], the IC50 on CDK6/cycD3 is less than 100 nM; on CDK4/CycD3, less than 100 nM; on CDK7/CyclinH/MAT1, 100 to 500 nM; at CDK9/cyclinTl (setting [4]), less than 100 nM; on CDK1/CyclinB, less than 100 nM; at CDK2/CycA2, less than 100 nM.

As to `CCN1CCC([C@@H](OC)c2ccc(Nc3ncc(F)c(-c4cc(F)c5nc(C)n(C(C)C)c5c4)n3)nc2)CC1` [Example 45], the IC50 is 100 to 500 nM on CDK6/cycD3; less than 100 nM at CDK4/CycD3; 1000 to 10000 nM on CDK7/CyclinH/MAT1; 100 to 500 nM on CDK9/cyclinTl (setting [4]); 100 to 500 nM on CDK1/CyclinB; less than 100 nM at CDK2/CycA2.

In the case of `CC[C@@H](c1ccc(Nc2ncc(F)c(-c3cc(F)c4nc(C)n(C(C)C)c4c3)n2)nc1)N1CCN(C)CC1` [Example 6], the IC50 was 100 to 500 nM at CDK6/cycD3; less than 100 nM at CDK4/CycD3; 1000 to 10000 nM at CDK7/CyclinH/MAT1; 1000 to 10000 nM at CDK9/cyclinTl (CDK9 enzymatic inhibitory activity (IC50)); 10000 to 100000 nM at CDK1/CyclinB; 1000 to 10000 nM on CDK2/CycA2.

As to `CCN1CCN(Cc2ccc(Nc3ncc(F)c(-c4cc(F)c5nc(C)n(C(C)C)c5c4)n3)nc2)CC1` [Abemaciclib, reference compound], the “Tumor volume (day 0)” value in data set [2] (baseline at start of dosing) was 198 mm^3. Moreover, the “Tumor volume (day 28)” value in data set [2] amounted to 749 mm^3. For the same compound, the “TGI tumor growth inhibition rate” value in data set [2] (day 28) is reported as 74.5%.

As for `Cc1nc2c(F)cc(-c3nc(Nc4ccc(C=C5CCNCC5)cn4)ncc3F)cc2n1C(C)C` [Example 59], the IC50 at CDK6/cycD3 is 500 to 1000 nM; on CDK4/CycD3, less than 100 nM; at CDK7/CyclinH/MAT1, 1000 to 10000 nM; at CDK9/cyclinTl (setting [4]), 100 to 500 nM; on CDK1/CyclinB it was 500 to 1000 nM; on CDK2/CycA2, 100 to 500 nM.

For `Cc1nc2c(F)cc(-c3nc(Nc4ccc(C(C)C5CCNCC5)cn4)ncc3F)cc2n1C(C)C` (single isomer, unassigned) [Example 20, (R or S)-5-fluoro-4-(4-fluoro-1-isopropyl-2-methyl-1H-benzo[d]imidazol-6-yl)-N-(5-(1-(piperidin-4-yl)ethyl)pyridin-2-yl) pyrimidin-2-amine], the IC50 is 100 to 500 nM at CDK6/cycD3; less than 100 nM on CDK4/CycD3; 1000 to 10000 nM on CDK7/CyclinH/MAT1; 500 to 1000 nM at CDK9/cyclinTl (setting [4]); 500 to 1000 nM on CDK1/CyclinB; 100 to 500 nM on CDK2/CycA2.

On to `CCN1CCC(C(OC(C)=O)c2ccc(Nc3ncc(F)c(-c4cc(F)c5nc(C)n(C(C)C)c5c4)n3)nc2)CC1` (single isomer, unassigned) [Example 71, (R or S)-(1-ethylpiperidin-4-yl) (6-((5-fluoro-4-(4-fluoro-1-isopropyl-2-methyl-1H-benzo[d]imidazol-6-yl)pyrimidin-2-yl)amino)pyridin-3-yl) methyl acetate], for which the IC50 on CDK6/cycD3 is less than 100 nM; on CDK4/CycD3, less than 100 nM; on CDK7/CyclinH/MAT1, 1000 to 10000 nM; at CDK9/cyclinTl (setting [4]) it was 100 to 500 nM; on CDK1/CyclinB, 100 to 500 nM; on CDK2/CycA2, less than 100 nM.
